In ChEMBL document CHEMBL1671651, “Azithromycin in Pseudomonas aeruginosa biofilms: bactericidal activity and selection of nfxB mutants” (2009):
Converted amounts (≈) assume the structure as drawn.

Legend:
Type in all cases: functional
Pseudomonas aeruginosa [1] = experiment: Antimicrobial activity against mutS::lox-deficient Pseudomonas aeruginosa PAOMSA biofilm harboring nfxB G461A mutant gene selected at 4 ug/ml of azithromycin after 5 passages by Etest method
Pseudomonas aeruginosa [2] = experiment: Antimicrobial activity against Pseudomonas aeruginosa PAO1 A biofilm harboring duplication mutation at nucleotide 333 in nfxB gene selected at 0.5 ug/ml of azithromycin by Etest method
Pseudomonas aeruginosa [3] = experiment: Antimicrobial activity against mucA::lox-deficient Pseudomonas aeruginosa PAOMAB biofilm harboring nfxB G125T mutant gene selected at 0.5 ug/ml of azithromycin after 1 passages by Etest method
Pseudomonas aeruginosa [4] = experiment: Antimicrobial activity against mucA::lox, mutS::lox-deficient Pseudomonas aeruginosa PAOMSAA biofilm harboring nfxB C89T mutant gene selected at 0.5 ug/ml of azithromycin after 3 passages by Etest method
Pseudomonas aeruginosa [5] = experiment: Antimicrobial activity against mucA::lox, mutS::lox-deficient Pseudomonas aeruginosa PAOMSAA biofilm harboring nfxB C89T mutant gene selected at 4 ug/ml of azithromycin after 6 passages by Etest method
Pseudomonas aeruginosa [6] = experiment: Antimicrobial activity against mutS::lox,mexD::lox-deficient Pseudomonas aeruginosa PAOMSMxD biofilm by Etest method
Pseudomonas aeruginosa [7] = experiment: Antimicrobial activity against Pseudomonas aeruginosa PAO1 A biofilm harboring nfxB T248C mutant gene selected at 4 ug/ml of azithromycin after 4 passages by Etest method
Pseudomonas aeruginosa [8] = experiment: Antimicrobial activity against mutS::lox-deficient Pseudomonas aeruginosa PAOMSA biofilm harboring nfxB G539A mutant gene selected at 4 ug/ml of azithromycin after 6 passages by Etest method
Pseudomonas aeruginosa [9] = experiment: Antimicrobial activity against mucA::lox, mutS::lox-deficient Pseudomonas aeruginosa PAOMSAB biofilm harboring nfxB C89T mutant gene selected at 4 ug/ml of azithromycin after 6 passages by Etest method
Pseudomonas aeruginosa [10] = experiment: Antimicrobial activity against mucA::lox, mutS::lox-deficient Pseudomonas aeruginosa PAOMSAB biofilm harboring nfxB C25T mutant gene selected at 1 ug/ml of azithromycin after 2 passages by Etest method
Pseudomonas aeruginosa [11] = experiment: Antimicrobial activity against mucA::lox, mutS::lox-deficient Pseudomonas aeruginosa PAOMSAA biofilm harboring nfxB T77C mutant gene selected at 4 ug/ml of azithromycin after 3 passages by Etest method
Pseudomonas aeruginosa [12] = experiment: Antimicrobial activity against mutS::lox-deficient Pseudomonas aeruginosa PAOMSB biofilm harboring nfxB T380C mutant gene selected at 0.5 ug/ml of azithromycin after 2 passages by Etest method
Pseudomonas aeruginosa [13] = experiment: Antimicrobial activity against mutS::lox-deficient Pseudomonas aeruginosa PAOMSA biofilm harboring nfxB C116T mutant gene selected at 1 ug/ml of azithromycin after 1 passages by Etest method
Pseudomonas aeruginosa [14] = experiment: Antimicrobial activity against mutS::lox-deficient Pseudomonas aeruginosa PAOMSB biofilm harboring nfxB T77C mutant gene selected at 4 ug/ml of azithromycin after 6 passages by Etest method
Pseudomonas aeruginosa [15] = experiment: Antimicrobial activity against Pseudomonas aeruginosa PAO1 biofilm by Etest method
Pseudomonas aeruginosa [16] = experiment: Antimicrobial activity against mutS::lox-deficient Pseudomonas aeruginosa PAOMS biofilm by Etest method
Pseudomonas aeruginosa [17] = experiment: Antimicrobial activity against mutS::lox-deficient Pseudomonas aeruginosa PAOMSA biofilm harboring nfxB T533C mutant gene selected at 4 ug/ml of azithromycin after 2 passages by Etest method
Pseudomonas aeruginosa [18] = experiment: Antimicrobial activity against nfxB gene-deficient Pseudomonas aeruginosa PAONB biofilm by Etest method
Pseudomonas aeruginosa [19] = experiment: Antimicrobial activity against mutS::lox-deficient Pseudomonas aeruginosa PAOMSB biofilm harboring nfxB C116T mutant gene selected at 4 ug/ml of azithromycin after 5 passages by Etest method
Pseudomonas aeruginosa [20] = experiment: Antimicrobial activity against mucA::lox-deficient Pseudomonas aeruginosa PAOMA biofilm by Etest method
Pseudomonas aeruginosa [21] = experiment: Antimicrobial activity against mucA::lox, mutS::lox-deficient Pseudomonas aeruginosa PAOMSA biofilm by Etest method
Pseudomonas aeruginosa [22] = experiment: Antimicrobial activity against mucA::lox-deficient Pseudomonas aeruginosa PAOMAA biofilm harboring nfxB C25T mutant gene selected at 1 ug/ml of azithromycin after 2 passages by Etest method
Pseudomonas aeruginosa [23] = experiment: Antimicrobial activity against mucA::lox, mutS::lox-deficient Pseudomonas aeruginosa PAOMSAB biofilm harboring nfxB T86C mutant gene selected at 4 ug/ml of azithromycin after 2 passages by Etest method
Pseudomonas aeruginosa [24] = experiment: Antimicrobial activity against mutS::lox-deficient Pseudomonas aeruginosa PAOMSA biofilm harboring nfxB T86C mutant gene selected at 4 ug/ml of azithromycin after 3 passages by Etest method
Pseudomonas aeruginosa [25] = experiment: Antimicrobial activity against mutS::lox-deficient Pseudomonas aeruginosa PAOMSB biofilm harboring deletion od C534 in nfxB mutant gene selected at 4 ug/ml of azithromycin after 2 passages by Etest method
Pseudomonas aeruginosa [26] = experiment: Antimicrobial activity against mucA::lox, mutS::lox-deficient Pseudomonas aeruginosa PAOMSAA biofilm harboring nfxB T86C mutant gene selected at 4 ug/ml of azithromycin after 2 passages by Etest method
Pseudomonas aeruginosa [27] = experiment: Antimicrobial activity against mutS::lox,nfxB gene-deficient Pseudomonas aeruginosa PAOMSNB biofilm by Etest method
Pseudomonas aeruginosa [28] = experiment: Antimicrobial activity against mutS::lox-deficient Pseudomonas aeruginosa PAOMSB biofilm harboring nfxB T41C mutant gene selected at 4 ug/ml of azithromycin after 3 passages by Etest method
Pseudomonas aeruginosa [29] = experiment: Antimicrobial activity against mutS::lox-deficient Pseudomonas aeruginosa PAOMSB biofilm harboring nfxB T562C mutant gene selected at 4 ug/ml of azithromycin after 4 passages by Etest method
Pseudomonas aeruginosa [30] = experiment: Antimicrobial activity against mutS::lox-deficient Pseudomonas aeruginosa PAOMSA biofilm harboring nfxB T86C mutant gene selected at 4 ug/ml of azithromycin after 4 passages by Etest method
Pseudomonas aeruginosa [31] = experiment: Antimicrobial activity against Pseudomonas aeruginosa PAO1 A biofilm harboring deletion mutation at nucleotide 231-244 in nfxB gene selected at 1 ug/ml of azithromycin after 4 passages by Etest method
Pseudomonas aeruginosa [32] = experiment: Antimicrobial activity against mexD::lox-deficient Pseudomonas aeruginosa PAOMxD biofilm by Etest method
Pseudomonas aeruginosa [33] = experiment: Antimicrobial activity against mucA::lox, mutS::lox-deficient Pseudomonas aeruginosa PAOMSAB biofilm harboring nfxB T544C mutant gene selected at 4 ug/ml of azithromycin after 1 passages by Etest method

Row | Molecule | MIC (Pseudomonas aeruginosa [1]) | MIC (Pseudomonas aeruginosa [2]) | MIC (Pseudomonas aeruginosa [3]) | MIC (Pseudomonas aeruginosa [4]) | MIC (Pseudomonas aeruginosa [5]) | MIC (Pseudomonas aeruginosa [6]) | MIC (Pseudomonas aeruginosa [7]) | MIC (Pseudomonas aeruginosa [8]) | MIC (Pseudomonas aeruginosa [9]) | MIC (Pseudomonas aeruginosa [10]) | MIC (Pseudomonas aeruginosa [11]) | MIC (Pseudomonas aeruginosa [12]) | MIC (Pseudomonas aeruginosa [13]) | MIC (Pseudomonas aeruginosa [14]) | MIC (Pseudomonas aeruginosa [15]) | MIC (Pseudomonas aeruginosa [16]) | MIC (Pseudomonas aeruginosa [17]) | MIC (Pseudomonas aeruginosa [18]) | MIC (Pseudomonas aeruginosa [19]) | MIC (Pseudomonas aeruginosa [20]) | other results
1 | COLISTIN | 2 µg/mL | 1.5 µg/mL | 1 µg/mL | 1 µg/mL | 2 µg/mL | 2 µg/mL | 1.5 µg/mL | 1.5 µg/mL | 1 µg/mL | 2 µg/mL | 2 µg/mL | 2 µg/mL | 2 µg/mL | 0.5 µg/mL | 2 µg/mL | 2 µg/mL | 2 µg/mL | 1.5 µg/mL | 1.5 µg/mL | 2 µg/mL | MIC (Pseudomonas aeruginosa [21]): 2 µg/mL; MIC (Pseudomonas aeruginosa [22]): 1 µg/mL; MIC (Pseudomonas aeruginosa [23]): 2 µg/mL; MIC (Pseudomonas aeruginosa [24]): 2 µg/mL; MIC (Pseudomonas aeruginosa [25]): 2 µg/mL; MIC (Pseudomonas aeruginosa [26]): 3 µg/mL; MIC (Pseudomonas aeruginosa [27]): 1.5 µg/mL; MIC (Pseudomonas aeruginosa [28]): 2 µg/mL; MIC (Pseudomonas aeruginosa [29]): 3 µg/mL; MIC (Pseudomonas aeruginosa [30]): 3 µg/mL; MIC (Pseudomonas aeruginosa [31]): 2 µg/mL; MIC (Pseudomonas aeruginosa [32]): 2 µg/mL; MIC (Pseudomonas aeruginosa [33]): 3 µg/mL
2 | NC[C@H]1O[C@H](O[C@H]2[C@H](O)[C@@H](O[C@H]3O[C@H](CO)[C@@H](O)[C@H](N)[C@H]3O)[C@H](N)C[C@@H]2N)[C@H](N)C[C@@H]1O [TOBRAMYCIN] | 1.5 µg/mL | 0.19 µg/mL | 0.38 µg/mL | 0.75 µg/mL | 0.5 µg/mL | 2 µg/mL (≈ 4.28 µM) | 0.25 µg/mL | 1 µg/mL | 1 µg/mL | 0.38 µg/mL | 1.5 µg/mL | 1 µg/mL | 1 µg/mL | 1 µg/mL | 1.5 µg/mL (≈ 3.21 µM) | 1.5 µg/mL (≈ 3.21 µM) | 0.75 µg/mL | 0.25 µg/mL (≈ 0.535 µM) | 0.5 µg/mL | 1.5 µg/mL (≈ 3.21 µM) | MIC (Pseudomonas aeruginosa [21]): 1.5 µg/mL (≈ 3.21 µM); MIC (Pseudomonas aeruginosa [22]): 0.38 µg/mL; MIC (Pseudomonas aeruginosa [23]): 0.5 µg/mL; MIC (Pseudomonas aeruginosa [24]): 0.5 µg/mL; MIC (Pseudomonas aeruginosa [25]): 1 µg/mL; MIC (Pseudomonas aeruginosa [26]): 0.5 µg/mL; MIC (Pseudomonas aeruginosa [27]): 0.5 µg/mL (≈ 1.07 µM); MIC (Pseudomonas aeruginosa [28]): 1 µg/mL; MIC (Pseudomonas aeruginosa [29]): 1.5 µg/mL; MIC (Pseudomonas aeruginosa [30]): 0.5 µg/mL; MIC (Pseudomonas aeruginosa [31]): 0.38 µg/mL; MIC (Pseudomonas aeruginosa [32]): 1.5 µg/mL (≈ 3.21 µM); MIC (Pseudomonas aeruginosa [33]): 1 µg/mL
3 | C[C@H]1[C@H](NC(=O)/C(=N\OC(C)(C)C(=O)O)c2csc(N)n2)C(=O)N1S(=O)(=O)O [AZTREONAM] | 2 µg/mL | 0.75 µg/mL | 0.5 µg/mL | 1 µg/mL | 1 µg/mL | 2 µg/mL (≈ 4.59 µM) | 0.75 µg/mL | 0.75 µg/mL | 1 µg/mL | 0.75 µg/mL | 2 µg/mL | 0.75 µg/mL | 2 µg/mL | 1 µg/mL | 2 µg/mL (≈ 4.59 µM) | 2 µg/mL (≈ 4.59 µM) | 0.75 µg/mL | 0.5 µg/mL (≈ 1.15 µM) | 0.75 µg/mL | 2 µg/mL (≈ 4.59 µM) | MIC (Pseudomonas aeruginosa [21]): 2 µg/mL (≈ 4.59 µM); MIC (Pseudomonas aeruginosa [22]): 0.75 µg/mL; MIC (Pseudomonas aeruginosa [23]): 1 µg/mL; MIC (Pseudomonas aeruginosa [24]): 1 µg/mL; MIC (Pseudomonas aeruginosa [25]): 2 µg/mL; MIC (Pseudomonas aeruginosa [26]): 1 µg/mL; MIC (Pseudomonas aeruginosa [27]): 1 µg/mL (≈ 2.3 µM); MIC (Pseudomonas aeruginosa [28]): 2 µg/mL; MIC (Pseudomonas aeruginosa [29]): 1.5 µg/mL; MIC (Pseudomonas aeruginosa [30]): 0.75 µg/mL; MIC (Pseudomonas aeruginosa [31]): 0.5 µg/mL; MIC (Pseudomonas aeruginosa [32]): 2 µg/mL (≈ 4.59 µM); MIC (Pseudomonas aeruginosa [33]): 2 µg/mL
